ChEMBL document CHEMBL4385653, “Design, synthesis, biological evaluation of benzoyl amide derivatives containing nitrogen heterocyclic ring as potential VEGFR-2 inhibitors” (Bioorg Med Chem, 2019)
pIC50: −log10 of the molar value.

What was measured:
[1] = target: Fibroblast growth factor receptor 1 (Homo sapiens, UniProt P11362); assay: Inhibition of bFGFR (unknown origin) incubated for 30 mins by enzyme immunoassay
MCF7 [2] = assay: Inhibition of cell migration of human MCF7 cells assessed as relative distance between the edges of the wound at 4 uM incubated for 12 hrs by wound healing assay (reference value: 87.55%); assay type: functional; design: scale not given: the % may be the effect or the level left
MCF7 [3] = assay: Induction of apoptosis in human MCF7 cells assessed as early apoptotic cells level at 2 uM incubated for 24 hrs by Annexin V-FITC/PI double staining based flow cytometry analysis (reference value: 6.37%); assay type: functional
MCF7 [4] = assay: Antiproliferative activity against human MCF7 cells assessed as inhibition of cell proliferation incubated for 48 hrs by MTT assay; assay type: functional, cell-based; conditions: MCF7, 48 h
MCF7 [5] = assay: Induction of apoptosis in human MCF7 cells assessed as late apoptotic cells level at 4 uM incubated for 24 hrs by Annexin V-FITC/PI double staining based flow cytometry analysis (reference value: 3.1%); assay type: functional
MCF7 [6] = assay: Induction of apoptosis in human MCF7 cells at 4 uM by Annexin V-FITC/PI double staining based flow cytometry analysis; assay type: functional, cell-based; conditions: TDE = time-dependent effect
[7] = Inhibition of PDGFR (unknown origin) incubated for 30 mins by enzyme immunoassay; design: species or system Homo sapiens
MCF7 [8] = assay: Induction of apoptosis in human MCF7 cells assessed as viable cells level at 4 uM incubated for 24 hrs by Annexin V-FITC/PI double staining based flow cytometry analysis (reference value: 89%); assay type: functional
MCF7 [9] = assay: Suppression of mitochondrial membrane potential in human MCF7 cells assessed as red fluorescent cells level at 8 uM incubated for 12 hrs by rhodamine-123 dye based flow cytometry analysis (reference value: 99.71%); assay type: functional
MCF7 [10] = assay: Induction of apoptosis in human MCF7 cells assessed as late apoptotic cells level at 4 uM incubated for 36 hrs by Annexin V-FITC/PI double staining based flow cytometry analysis (reference value: 3.1%); assay type: functional
MCF7 [11] = assay: Suppression of mitochondrial membrane potential in human MCF7 cells assessed as increase in green fluorescent cells incubated for 12 hrs by rhodamine-123 dye based flow cytometry analysis; assay type: functional, cell-based
[12] = Cytotoxicity in HEK293T cells assessed as reduction in cell viability incubated for 48 hrs by MTT assay; assay type: cell-based, HEK-293T; conditions: human
MCF7 [13] = assay: Induction of apoptosis in human MCF7 cells assessed as viable cells level at 4 uM incubated for 12 hrs by Annexin V-FITC/PI double staining based flow cytometry analysis (reference value: 89%); assay type: functional
MCF7 [14] = assay: Inhibition of cell migration of human MCF7 cells assessed as relative distance between the edges of the wound at 4 uM incubated for 24 hrs by wound healing assay (reference value: 87.55%); assay type: functional; design: scale not given: the % may be the effect or the level left
MCF7 [15] = assay: Induction of apoptosis in human MCF7 cells assessed as viable cells level at 4 uM incubated for 24 hrs by Annexin V-FITC/PI double staining based flow cytometry analysis (reference value: 82%); assay type: functional
MCF7 [16] = assay: Suppression of mitochondrial membrane potential in human MCF7 cells assessed as decrease in red fluorescent cells incubated for 12 hrs by rhodamine-123 dye based flow cytometry analysis; assay type: functional, cell-based
MCF7 [17] = assay: Induction of apoptosis in human MCF7 cells assessed as late necrotic cells level at 8 uM incubated for 24 hrs by Annexin V-FITC/PI double staining based flow cytometry analysis (reference value: 1.49%); assay type: functional
MCF7 [18] = assay: Induction of apoptosis in human MCF7 cells assessed as late apoptotic cells level at 4 uM incubated for 12 hrs by Annexin V-FITC/PI double staining based flow cytometry analysis (reference value: 3.1%); assay type: functional
MCF7 [19] = assay: Induction of apoptosis in human MCF7 cells incubated for 24 hrs by Annexin V-FITC/PI double staining based flow cytometry analysis; assay type: functional, cell-based
MCF7 [20] = assay: Induction of apoptosis in human MCF7 cells assessed as late necrotic cells level at 4 uM incubated for 24 hrs by Annexin V-FITC/PI double staining based flow cytometry analysis (reference value: 1.49%); assay type: functional
MCF7 [21] = assay: Induction of apoptosis in human MCF7 cells assessed as late apoptotic cells level at 8 uM incubated for 24 hrs by Annexin V-FITC/PI double staining based flow cytometry analysis (reference value: 10.1%); assay type: functional
MCF7 [22] = assay: Suppression of mitochondrial membrane potential in human MCF7 cells assessed as red fluorescent cells level at 2 uM incubated for 12 hrs by rhodamine-123 dye based flow cytometry analysis (reference value: 99.71%); assay type: functional
MCF7 [23] = assay: Suppression of mitochondrial membrane potential in human MCF7 cells assessed as red fluorescent cells level at 4 uM incubated for 12 hrs by rhodamine-123 dye based flow cytometry analysis (reference value: 99.71%); assay type: functional
[24] = target: Epidermal growth factor receptor (Homo sapiens, UniProt P00533); assay: Inhibition of EGFR (unknown origin) incubated for 30 mins by enzyme immunoassay
MCF7 [25] = assay: Induction of apoptosis in human MCF7 cells assessed as early apoptotic cells level at 8 uM incubated for 24 hrs by Annexin V-FITC/PI double staining based flow cytometry analysis (reference value: 6.37%); assay type: functional
HeLa = assay: Antiproliferative activity against human HeLa cells assessed as inhibition of cell proliferation incubated for 48 hrs by MTT assay; assay type: functional, cell-based
MCF7 [26] = assay: Induction of apoptosis in human MCF7 cells assessed as viable cells level at 4 uM incubated for 36 hrs by Annexin V-FITC/PI double staining based flow cytometry analysis (reference value: 89%); assay type: functional
MCF7 [27] = assay: Suppression of mitochondrial membrane potential in human MCF7 cells assessed as green fluorescent cells level at 2 uM incubated for 12 hrs by rhodamine-123 dye based flow cytometry analysis (reference value: 0.29%); assay type: functional
MCF7 [28] = assay: Suppression of mitochondrial membrane potential in human MCF7 cells assessed as green fluorescent cells level at 4 uM incubated for 12 hrs by rhodamine-123 dye based flow cytometry analysis (reference value: 0.29%); assay type: functional
MCF7 [29] = assay: Induction of apoptosis in human MCF7 cells assessed as late necrotic cells level at 4 uM incubated for 24 hrs by Annexin V-FITC/PI double staining based flow cytometry analysis (reference value: 6.88%); assay type: functional
MCF7 [30] = assay: Induction of apoptosis in human MCF7 cells assessed as early apoptotic cells level at 4 uM incubated for 24 hrs by Annexin V-FITC/PI double staining based flow cytometry analysis (reference value: 6.37%); assay type: functional
[31] = target: Vascular endothelial growth factor receptor 2 (Homo sapiens, UniProt P35968); assay: Inhibition of VEGFR2 (unknown origin) incubated for 30 mins by enzyme immunoassay
A549 = assay: Antiproliferative activity against human A549 cells assessed as inhibition of cell proliferation incubated for 48 hrs by MTT assay; assay type: functional, cell-based; conditions: A549, 48 h
MCF7 [32] = assay: Induction of apoptosis in human MCF7 cells assessed as early apoptotic cells level at 4 uM incubated for 36 hrs by Annexin V-FITC/PI double staining based flow cytometry analysis (reference value: 1.06%); assay type: functional
MCF7 [33] = assay: Suppression of mitochondrial membrane potential in human MCF7 cells assessed as green fluorescent cells level at 8 uM incubated for 12 hrs by rhodamine-123 dye based flow cytometry analysis (reference value: 0.29%); assay type: functional
MCF7 [34] = assay: Induction of apoptosis in human MCF7 cells assessed as late necrotic cells level at 2 uM incubated for 24 hrs by Annexin V-FITC/PI double staining based flow cytometry analysis (reference value: 1.49%); assay type: functional

Sequence of Epidermal growth factor receptor (P00533 whole entry): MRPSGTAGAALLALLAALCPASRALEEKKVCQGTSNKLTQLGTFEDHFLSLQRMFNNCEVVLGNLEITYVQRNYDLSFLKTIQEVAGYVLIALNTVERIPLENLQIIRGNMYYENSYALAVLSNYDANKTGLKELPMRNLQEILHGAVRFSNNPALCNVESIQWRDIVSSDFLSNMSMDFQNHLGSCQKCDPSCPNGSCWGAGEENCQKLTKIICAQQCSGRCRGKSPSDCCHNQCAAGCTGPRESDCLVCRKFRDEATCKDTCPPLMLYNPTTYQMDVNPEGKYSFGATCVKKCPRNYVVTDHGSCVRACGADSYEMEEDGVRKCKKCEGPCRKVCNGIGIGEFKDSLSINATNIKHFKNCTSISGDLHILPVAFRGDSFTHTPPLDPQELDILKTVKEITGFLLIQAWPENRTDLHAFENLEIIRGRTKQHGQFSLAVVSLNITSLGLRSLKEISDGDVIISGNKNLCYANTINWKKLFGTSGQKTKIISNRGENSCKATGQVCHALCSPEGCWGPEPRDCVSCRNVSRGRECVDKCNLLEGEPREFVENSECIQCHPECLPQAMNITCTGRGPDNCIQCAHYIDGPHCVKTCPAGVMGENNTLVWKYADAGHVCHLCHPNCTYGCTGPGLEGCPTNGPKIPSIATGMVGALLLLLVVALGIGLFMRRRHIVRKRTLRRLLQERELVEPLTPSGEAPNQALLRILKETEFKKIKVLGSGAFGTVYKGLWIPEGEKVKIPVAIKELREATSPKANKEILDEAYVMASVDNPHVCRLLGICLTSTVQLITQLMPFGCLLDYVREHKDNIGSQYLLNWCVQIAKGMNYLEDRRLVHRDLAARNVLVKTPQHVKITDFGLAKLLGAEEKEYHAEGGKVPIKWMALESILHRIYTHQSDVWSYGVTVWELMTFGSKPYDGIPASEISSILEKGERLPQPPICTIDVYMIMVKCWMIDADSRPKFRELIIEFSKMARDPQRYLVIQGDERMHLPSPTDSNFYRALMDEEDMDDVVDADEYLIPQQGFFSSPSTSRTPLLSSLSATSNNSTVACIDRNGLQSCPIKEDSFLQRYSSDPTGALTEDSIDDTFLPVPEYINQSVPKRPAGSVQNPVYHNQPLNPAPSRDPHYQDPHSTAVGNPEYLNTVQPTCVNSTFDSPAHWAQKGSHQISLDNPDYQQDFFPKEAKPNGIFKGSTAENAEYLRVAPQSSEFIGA
Sequence of Fibroblast growth factor receptor 1 (P11362 whole entry): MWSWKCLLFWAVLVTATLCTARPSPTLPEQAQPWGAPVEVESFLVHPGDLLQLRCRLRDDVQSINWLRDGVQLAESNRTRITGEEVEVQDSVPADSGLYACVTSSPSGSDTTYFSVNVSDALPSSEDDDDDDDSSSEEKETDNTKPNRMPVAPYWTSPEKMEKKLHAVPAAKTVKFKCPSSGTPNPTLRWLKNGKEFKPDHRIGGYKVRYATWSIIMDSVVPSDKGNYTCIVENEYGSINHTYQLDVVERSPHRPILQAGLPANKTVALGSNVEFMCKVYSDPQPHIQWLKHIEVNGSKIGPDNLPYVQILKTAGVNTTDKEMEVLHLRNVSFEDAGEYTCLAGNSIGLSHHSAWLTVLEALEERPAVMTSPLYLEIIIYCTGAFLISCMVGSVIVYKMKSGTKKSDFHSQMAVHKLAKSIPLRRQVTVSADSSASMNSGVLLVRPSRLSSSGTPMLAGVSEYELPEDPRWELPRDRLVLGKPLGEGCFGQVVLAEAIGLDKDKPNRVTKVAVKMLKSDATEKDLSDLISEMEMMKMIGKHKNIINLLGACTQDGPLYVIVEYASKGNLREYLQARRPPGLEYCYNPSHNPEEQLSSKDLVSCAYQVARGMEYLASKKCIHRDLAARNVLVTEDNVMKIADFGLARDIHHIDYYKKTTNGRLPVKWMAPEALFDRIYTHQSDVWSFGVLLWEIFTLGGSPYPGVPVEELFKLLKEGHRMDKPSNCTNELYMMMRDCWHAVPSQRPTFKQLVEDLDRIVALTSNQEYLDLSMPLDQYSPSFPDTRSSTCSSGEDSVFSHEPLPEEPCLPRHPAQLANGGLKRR
Sequence of Vascular endothelial growth factor receptor 2 (P35968 whole entry): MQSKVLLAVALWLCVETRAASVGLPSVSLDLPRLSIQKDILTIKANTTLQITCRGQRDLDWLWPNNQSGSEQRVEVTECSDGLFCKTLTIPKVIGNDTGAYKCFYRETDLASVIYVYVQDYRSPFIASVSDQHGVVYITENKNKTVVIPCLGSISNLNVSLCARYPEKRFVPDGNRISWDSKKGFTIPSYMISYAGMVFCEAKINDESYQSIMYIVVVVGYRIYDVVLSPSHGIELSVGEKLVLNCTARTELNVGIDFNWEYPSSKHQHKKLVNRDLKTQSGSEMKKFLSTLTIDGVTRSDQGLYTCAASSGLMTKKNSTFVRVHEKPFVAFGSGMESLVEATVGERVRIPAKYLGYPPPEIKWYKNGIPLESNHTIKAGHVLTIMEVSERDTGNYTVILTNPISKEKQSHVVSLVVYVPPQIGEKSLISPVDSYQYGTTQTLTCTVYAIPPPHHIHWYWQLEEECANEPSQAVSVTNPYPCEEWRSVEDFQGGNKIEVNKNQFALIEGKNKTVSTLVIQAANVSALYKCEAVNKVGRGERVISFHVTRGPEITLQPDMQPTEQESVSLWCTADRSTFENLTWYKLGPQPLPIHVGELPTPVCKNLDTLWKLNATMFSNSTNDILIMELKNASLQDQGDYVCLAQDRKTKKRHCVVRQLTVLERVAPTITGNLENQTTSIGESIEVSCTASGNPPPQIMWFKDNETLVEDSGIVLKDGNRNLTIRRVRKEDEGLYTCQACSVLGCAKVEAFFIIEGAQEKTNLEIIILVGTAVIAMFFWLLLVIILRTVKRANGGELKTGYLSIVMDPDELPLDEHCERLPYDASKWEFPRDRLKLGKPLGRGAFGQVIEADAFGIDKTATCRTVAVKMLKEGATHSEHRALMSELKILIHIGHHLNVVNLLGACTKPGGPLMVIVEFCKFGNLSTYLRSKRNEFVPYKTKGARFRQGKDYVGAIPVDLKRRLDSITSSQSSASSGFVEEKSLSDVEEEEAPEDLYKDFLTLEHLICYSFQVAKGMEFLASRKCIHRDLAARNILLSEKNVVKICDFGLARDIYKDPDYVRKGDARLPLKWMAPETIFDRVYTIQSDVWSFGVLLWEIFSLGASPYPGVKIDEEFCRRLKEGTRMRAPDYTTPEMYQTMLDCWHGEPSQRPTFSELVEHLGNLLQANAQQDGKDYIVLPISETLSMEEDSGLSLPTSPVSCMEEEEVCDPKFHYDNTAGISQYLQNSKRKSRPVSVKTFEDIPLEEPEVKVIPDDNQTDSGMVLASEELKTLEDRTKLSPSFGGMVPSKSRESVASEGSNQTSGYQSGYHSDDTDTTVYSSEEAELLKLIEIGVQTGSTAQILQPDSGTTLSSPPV

Cc1ccc(-n2cc(NC(=O)c3cccc(NS(=O)(=O)c4ccc(Cl)cc4)c3)cn2)cc1
pIC50 [1]: 4.76 | Activity (MCF7 [2]): 90.9% | Activity (MCF7 [3]): 9.7% | pIC50 (MCF7 [4]): 5.97 | Activity (MCF7 [5]): 18.7% | Activity (MCF7 [6]): Tde | pIC50 [7]: 4.85 | Activity (MCF7 [8]): 58.5% | Activity (MCF7 [9]): 62.85% | Activity (MCF7 [10]): 20.9% | Activity (MCF7 [11]): Dose-dependent effect | CC50 at 48 h [12]: 110 µM | Activity (MCF7 [13]): 65.6% | Activity (MCF7 [14]): 77.3% | Activity (MCF7 [15]): 64% | Activity (MCF7 [16]): Dose-dependent effect | Activity (MCF7 [17]): 3.76% | Activity (MCF7 [18]): 11.3% | Activity (MCF7 [19]): Dose-dependent effect | Activity (MCF7 [20]): 2.62% | Activity (MCF7 [21]): 45.2% | Activity (MCF7 [22]): 87.6% | Activity (MCF7 [23]): 80.6% | pIC50 [24]: 5.06 | Activity (MCF7 [25]): 9.62% | pIC50 (HeLa): 5.34 | Activity (MCF7 [26]): 47.6% | Activity (MCF7 [27]): 12.4% | Activity (MCF7 [28]): 19.4% | Activity (MCF7 [29]): 1.14% | Activity (MCF7 [30]): 11.9% | pIC50 [31]: 6.47 | pIC50 (A549): 4.81 | Activity (MCF7 [32]): 30.4% | Activity (MCF7 [33]): 37.15% | Activity (MCF7 [34]): 2.32%
